In general, IC50 refers to the concentration that gives 50% inhibition.

This assay concerns the target T1, His-tagged full-length RSK2 (RPS6KA3) (Homo sapiens, UniProt P51812).
T1 construct: His-tagged full-length RSK2 (RPS6KA3, Invitrogen PV3323); His; purchased Invitrogen PV3323
Briefly: RSK2 Omnia Assay for compound IC50 determination. Type of assay: biochemical. As to conditions: ATP 15 μM, n=2, read-out: Mean RSK2 Biochem IC50. In short, it runs like this: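 Initial-rate slopes from continuous kinetic reads were fitted to a four-parameter equation for IC50 (n=2). Ki was then derived by Cheng-Prusoff assuming ATP-competitive inhibition. Reactions contained 15 μM ATP (Km 16.3 μM), 5 μM Omnia ST Peptide 6, and […] in 50 mM HEPES pH 7.5, 10 mM MgCl2, 1 mM DTT, 1% DMSO. Compounds spanned 11 threefold steps, […] final.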

T1 sequence (P51812 whole entry): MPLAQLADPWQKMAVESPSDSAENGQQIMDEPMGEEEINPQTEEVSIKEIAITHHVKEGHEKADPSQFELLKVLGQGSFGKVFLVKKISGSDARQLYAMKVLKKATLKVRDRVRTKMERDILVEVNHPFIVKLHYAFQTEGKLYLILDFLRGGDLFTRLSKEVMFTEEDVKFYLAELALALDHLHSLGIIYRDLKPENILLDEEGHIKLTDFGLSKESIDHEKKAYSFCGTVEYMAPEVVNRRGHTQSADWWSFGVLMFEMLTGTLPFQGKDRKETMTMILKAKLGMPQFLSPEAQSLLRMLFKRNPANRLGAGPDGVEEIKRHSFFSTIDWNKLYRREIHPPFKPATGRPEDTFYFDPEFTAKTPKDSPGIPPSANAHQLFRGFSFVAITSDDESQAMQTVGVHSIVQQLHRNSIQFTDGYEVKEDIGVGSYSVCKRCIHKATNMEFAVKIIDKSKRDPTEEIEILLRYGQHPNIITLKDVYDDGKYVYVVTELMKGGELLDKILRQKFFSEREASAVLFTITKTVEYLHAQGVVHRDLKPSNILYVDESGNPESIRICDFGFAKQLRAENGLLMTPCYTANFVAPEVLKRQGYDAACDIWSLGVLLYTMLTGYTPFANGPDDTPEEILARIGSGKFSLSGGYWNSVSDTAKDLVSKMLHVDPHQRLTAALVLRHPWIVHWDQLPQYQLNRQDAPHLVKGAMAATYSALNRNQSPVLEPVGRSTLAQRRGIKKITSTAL

On to `N#Cc1cccc(N2C(=O)[C@@H](CO)N(C3CCCC3)c3nc(Nc4cc(F)c5[nH]ncc5c4)ncc32)c1` [Example 218, 3-[(7R)-8-cyclopentyl-2-[(7-fluoro-1H-indazol-5-yl)amino]-7-(hydroxymethyl)-6-oxo-7,8-dihydropteridin-5(6H)-yl]benzonitrile], for which the IC50 is at most 100 nM. For the molecule `Cc1ccc(N2C(=O)[C@@H](C)N(C3CCCCC3)c3nc(Nc4ccc5[nH]ncc5c4)ncc32)cc1C#N` [Example 53, 5-[(7R)-8-cyclohexyl-2-(1H-indazol-5-ylamino)-7-methyl-6-oxo-7,8-dihydropteridin-5(6H)-yl]-2-methylbenzonitrile], the IC50 was at most 100 nM. To `C[C@@H]1C(=O)N(c2cccc(C#N)c2)c2cnc(Nc3cc(F)c(O)c(F)c3)nc2N1C1CCCCC1` [compound 158, 3-[(7R)-8-cyclohexyl-2-[(3,5-difluoro-4-hydroxyphenyl)amino]-7-methyl-6-oxo-7,8-dihydropteridin-5(6H)-yl]benzonitrile] belongs at most 100 nM; to `COc1cc(N2C(=O)[C@@H](C)N(C3CCCCC3)c3nc(Nc4ccc5[nH]ncc5c4)ncc32)cc(OC)c1OC` [Example 38, (7R)-8-cyclohexyl-2-(1H-indazol-5-ylamino)-7-methyl-5-(3,4,5-trimethoxyphenyl)-7,8-dihydropteridin-6(5H)-one], at most 100 nM; to `COc1ccc(N2C(=O)[C@@H](C)N([C@H]3CC[C@H](OC)CC3)c3nc(Nc4ccc5[nH]c(=O)oc5c4)ncc32)cc1C#N` [compound 235, 2-methoxy-5-[(7R)-8-(trans-4-methoxycyclohexyl)-7-methyl-6-oxo-2-[(2-oxo-2,3-dihydro-1,3-benzoxazol-6-yl)amino]-7,8-dihydropteridin-5(6H)-yl]benzonitrile], at most 100 nM. With `C[C@@H]1C(=O)N(c2ccc(N3CCN(C)CC3)c(C#N)c2)c2cnc(Nc3cc(F)c4[nH]ncc4c3)nc2N1C1CCCCC1` [compound 173, 5-[(7R)-8-cyclohexyl-2-[(7-fluoro-1H-indazol-5-yl)amino]-7-methyl-6-oxo-7,8-dihydropteridin-5(6H)-yl]-2-(4-methylpiperazin-1-yl)benzonitrile], the IC50 is at most 100 nM. The figure for `COc1cc(N2C(=O)[C@@H](C)N(C3CCCCC3)c3nc(Nc4ccc5[nH]ncc5c4)ncc32)ccc1F` [Example 54, (7R)-8-cyclohexyl-5-(4-fluoro-3-methoxyphenyl)-2-(1H-indazol-5-ylamino)-7-methyl-7,8-dihydropteridin-6(5H)-one] is at most 100 nM; for `C[C@@H]1C(=O)N(c2ccc(C(=O)O)cc2)c2cnc(Nc3ccc4[nH]ncc4c3)nc2N1C1CCCCC1` [Example 63, 4-[(7R)-8-cyclohexyl-2-(1 H-indazol-5-ylamino)-7-methyl-6-oxo-7,8-dihydropteridin-5(6H)-yl]benzoic acid] it is at most 100 nM; for `C[C@@H]1C(=O)N(c2cccc(C#N)c2)c2cnc(Nc3ccc4[nH]c(=O)oc4c3)nc2N1C1CCC(F)(F)CC1` [compound 266, 3-[(7R)-8-(4,4-difluorocyclohexyl)-7-methyl-6-oxo-2-[(2-oxo-2,3-dihydro-1,3-benzoxazol-6-yl)amino]-7,8-dihydropteridin-5(6H)-yl]benzonitrile] it is at most 100 nM. With `C[C@@H]1C(=O)N(c2cccc(C#N)c2)c2cnc(Nc3cc4cn[nH]c4cc3Cl)nc2N1C1CCCCC1` [compound 118, 3-[(7R)-2-[(6-chloro-1H-indazol-5-yl)amino]-8-cyclohexyl-7-methyl-6-oxo-7,8-dihydropteridin-5(6H)-yl]benzonitrile], the IC50 is at most 100 nM. To `C[C@@H]1C(=O)N(c2ccc(N(C)C)nc2)c2cnc(Nc3ccc4[nH]ncc4c3)nc2N1C1CCCCC1` [compound 129, (7R)-8-cyclohexyl-5-[6-(dimethylamino)pyridin-3-yl]-2-(1H-indazol-5-ylamino)-7-methyl-7,8-dihydropteridin-6(5H)-one] belongs at most 100 nM.

With `C[C@@H]1C(=O)N(c2ccc(S(C)(=O)=O)cc2)c2cnc(Nc3ccc4[nH]ncc4c3)nc2N1C1CCCCC1` [Example 40, (7R)-8-cyclohexyl-2-(1H-indazol-5-ylamino)-7-methyl-5-[4-(methylsulfonyl)phenyl]-7,8-dihydropteridin-6(5H)-one], the IC50 is at most 100 nM. As for `C[C@@H]1C(=O)N(c2ccc3cccnc3c2)c2cnc(Nc3cc(F)c4[nH]ncc4c3)nc2N1C1CCCCC1` [compound 133, (7R)-8-cyclohexyl-2-[(7-fluoro-1H-indazol-5-yl)amino]-7-methyl-5-(quinolin-7-yl)-7,8-dihydropteridin-6(5H)-one], the IC50 is at most 100 nM. Turning to `C[C@@H]1C(=O)N(c2ccc(C(=O)N(C)C)cc2)c2cnc(Nc3ccc4[nH]ncc4c3)nc2N1C1CCCCC1` [Example 27, 4-[(7R)-8-cyclohexyl-2-(1H-indazol-5-ylamino)-7-methyl-6-oxo-7,8-dihydropteridin-5(6H)-yl]-N,N-dimethylbenzamide], the IC50 is at most 100 nM. The figure for `CC(C)CN1c2nc(Nc3ccc4[nH]ncc4c3)ncc2N(c2ccccc2)C(=O)[C@H]1C` [Example 79, (7R)-2-(1H-indazol-5-ylamino)-7-methyl-8-(2-methylpropyl)-5-phenyl-7,8-dihydropteridin-6(5H)-one] is at most 100 nM.

In the case of `CCOP(=O)(Cc1ccc(Nc2ncc3c(n2)N(CCC(C)C)C(C)C(=O)N3c2ccccc2)cc1)OCC` (stereo not shown) [Example 4, diethyl (4-{[7-methyl-8-(3-methylbutyl)-6-oxo-5-phenyl-5,6,7,8-tetrahydropteridin-2-yl]amino}benzyl)phosphonate], the 50% inhibitory concentration (IC50) was over 1000 nM. The figure for `CO[C@H]1CC[C@H](N2c3nc(Nc4cc5cn[nH]c5cn4)ncc3N(c3cccc(C#N)c3)C(=O)[C@H]2C)CC1` [compound 230, 3-[(7R)-8-(trans-4-methoxycyclohexyl)-7-methyl-6-oxo-2-(1H-pyrazolo[3,4-c]pyridin-5-ylamino)-7,8-dihydropteridin-5(6H)-yl]benzonitrile] is 100 to 1000 nM; for `C[C@@H]1C(=O)N(c2cc(F)cc(C#N)c2)c2cnc(Nc3ccc4[nH]ncc4c3)nc2N1C1CCCCC1` [compound 112, 3-[(7R)-8-cyclohexyl-2-(1H-indazol-5-ylamino)-7-methyl-6-oxo-7,8-dihydropteridin-5(6H)-yl]-5-fluorobenzonitrile] it is at most 100 nM; for `C[C@@H]1C(=O)N(c2cccc(C#N)c2)c2cnc(Nc3cc(F)c4[nH]c(=O)oc4c3)nc2N1C1CCCCC1` [compound 169, 3-[(7R)-8-cyclohexyl-2-[(4-fluoro-2-oxo-2,3-dihydro-1,3-benzoxazol-6-yl)amino]-7-methyl-6-oxo-7,8-dihydropteridin-5(6H)-yl]benzonitrile] it is at most 100 nM. To “(7R)-8-cyclohexyl-2-[(7-fluoro-1H-indazol-5-yl)amino]-7-methyl-5-[4-(morpholin-4-yl)phenyl]-7,8-dihydropteridin-6(5H)-one [compound 134]” belongs at most 100 nM; to `C[C@@H]1C(=O)N(c2cccc(C#N)c2)c2cnc(Nc3ccc4sncc4c3)nc2N1C1CCCCC1` [compound 109, 3-[(7R)-2-(1,2-benzothiazol-5-ylamino)-8-cyclohexyl-7-methyl-6-oxo-7,8-dihydropteridin-5(6H)-yl]benzonitrile], 100 to 1000 nM; to `CO[C@H]1CC[C@H](N2c3nc(Nc4cc(F)c5[nH]ncc5c4)ncc3N(c3cccc(C#N)c3)C(=O)[C@H]2C)CC1` [compound 224, 3-[(7R)-2-[(7-fluoro-1H-indazol-5-yl)amino]-8-(trans-4-methoxycyclohexyl)-7-methyl-6-oxo-7,8-dihydropteridin-5(6H)-yl]benzonitrile], at most 100 nM. `CNS(=O)(=O)Cc1ccc(Nc2ncc3c(n2)N(CCC(C)C)C(C)C(=O)N3c2ccccc2)cc1` (stereo not shown) [Example 7, N-methyl-1-(4-{[7-methyl-8-(3-methylbutyl)-6-oxo-5-phenyl-5,6,7,8-tetrahydropteridin-2-yl]amino}phenyl)methanesulfonamide]: the half-inhibitory concentration (IC50) is over 1000 nM. The figure for `C[C@@H]1C(=O)N(c2cccnc2)c2cnc(Nc3cc(F)c4[nH]ncc4c3)nc2N1[C@H]1CC[C@H](C(F)(F)F)CC1` [compound 256] is at most 100 nM; for `N#Cc1cccc(N2C(=O)[C@@H](CO)N(C3CCCC3)c3nc(Nc4ccc5[nH]ncc5c4)ncc32)c1` [Example 220, 3-[(7R)-8-cyclopentyl-7-(hydroxymethyl)-2-(1H-indazol-5-ylamino)-6-oxo-7,8-dihydropteridin-5(6H)-yl]benzonitrile] it is at most 100 nM; for `CC(C)Oc1ccc(N2C(=O)[C@@H](C)N(C3CCOCC3)c3nc(Nc4ccc5[nH]c(=O)oc5c4)ncc32)cc1C#N` [compound 199, 5-[(7R)-7-methyl-6-oxo-2-[(2-oxo-2,3-dihydro-1,3-benzoxazol-6-yl)amino]-8-(tetrahydro-2H-pyran-4-yl)-7,8-dihydropteridin-5(6H)-yl]-2-(propan-2-yloxy)benzonitrile] it is at most 100 nM. The figure for `COc1ccc(N2C(=O)[C@@H](C)N([C@H]3CC[C@H](C)CC3)c3nc(Nc4ccc5[nH]c(=O)oc5c4)ncc32)cc1C#N` [compound 244, 2-methoxy-5-[(7R)-7-methyl-8-(trans-4-methylcyclohexyl)-6-oxo-2-[(2-oxo-2,3-dihydro-1,3-benzoxazol-6-yl)amino]-7,8-dihydropteridin-5(6H)-yl]benzonitrile] is at most 100 nM.

As for `C[C@@H]1C(=O)N(c2cccnc2)c2cnc(Nc3ccc4[nH]ncc4c3F)nc2N1C1CCCCC1` [compound 122, (7R)-8-cyclohexyl-2-[(4-fluoro-1H-indazol-5-yl)amino]-7-methyl-5-(pyridin-3-yl)-7,8-dihydropteridin-6(5H)-one], the IC50 is at most 100 nM.

The values are drawn from patent publication US9351974B2, “Substituted pteridinones for the treatment of cancer” (OSI Pharmaceuticals, LLC, priority 2011, dated 2016).
